Holding throughout (assay type): cell-based, human
One assay relates to fibroblast cells. The assay is described as follows: Immunohistochemistry (Cellomics) % Sox2 and nestin positive cells with or without cytochalasin B (Table 4). The conditions noted are these: disrupting the cell cytoskeleton. How it is done:
Cells were fixed with a 4% formaldehyde/PBS solution for 10 min at room temperature and subsequently permeabilized for 5 min with 0.1% Triton X-100™ in 4% formaldehyde/PBS. After two brief washes with PBS, unspecific antibody binding was blocked by a 30 min incubation with 5% normal goat serum in PBS. Then primary antibodies were added in 5% normal goat serum/PBS as follows: Mouse anti-Nestin (1:100, BD) as an […] present in neural stem cells and mouse anti-NCAM (1:100, Neuromics) as neuronal adhesion molecule. After a 2 h incubation the cells were washed 4 times for 5 min each with 0.1% Tween™/PBS. Appropriate fluorescence-tagged secondary antibody was used for visualization; Goat anti-mouse 546 (1:200, invitrogen) prepared in 5% normal goat serum/PBS was used. […] Fluorescence images were taken with a Cellomics™ ArrayScan HCS Reader microscopy system. To determine an estimate of the percentage of cells adopting neuronal or glial phenotypes, random fields were selected and for each field the total number of cells (as determined by counting Hoechst stained nuclei) and the total number of cells positive for neuronal or glial markers were determined.
Various combinations of neurogenic regulators and cytokines for epigenetic modifications were tested to ascertain their effect on reprogramming efficiency. […] Cells were then analyzed for neural stem cell markers. […]

In assay [1] the test system is fibroblast cells within CDM. The assay is described as follows: Trans-differentiation of cells within CDM by cytochalasin B, VPA, 5-Azacytidine, immunohistochemistry. Particulars: Day 14 CDM; cytochalasin B and NbActive medium only. As to the method: Fibroblast cells were cultured in DMEM medium in the presence of 10% FCS as described in Example I, followed by seeding onto 12-well plates pre-coated with laminin ([…]) at a concentration of 2×10^6 cells/ml in defined CDM Medium consisting of a 3:1 ratio of Dulbecco's modified Eagle medium (DMEM, high glucose (4.5 g/L) with L-glutamine and sodium pyruvate) and Ham's F-12 medium supplemented with the following components: EGF (4.2×10^−10M), bFGF (2.8×10^−10M), ITS (8.6×10^−5M), dexamethasone (1.0×10^−7M), L-ascorbic acid phosphate magnesium salt n-hydrate (3.2×10^−4M), L-3,3′,5-triiodothyronine (2.0×10^−10M), ethanolamine (10^−4M), GlutaMAX™ (4×10^−3M), glutathione (3.3×10^−6M), and 1% penicillin/streptomycin/amphotericin B. By culturing the fibroblast cells at hyperconfluent density in this completely chemically defined medium causes them to enter a high synthetic phase with a slow-down in proliferation, leading to the production of a living tissue equivalent (LTE) consisting of multiple layers of fibroblasts within de novo 3D extracellular matrix (CDM) that is completely synthesized by the fibroblasts themselves.
Day 14 CDM samples were treated with cytochalsin B (10 μg/ml, Calbiochem), with the concentration of cytochalsin B reduced from 10 μg/ml to 0 μg/ml (none) over 5 days while at the same time switching the medium from CDM Medium to NbActive medium. […]

Another assay has as its system HFFs. The assay is described as follows: Sox2 immunohistochemistry with or without Noggin. The conditions noted are these: inhibiting the BMP signaling pathway. As to the method:
This study was designed to evaluate the role of Noggin in the process of de-differentiation of HFFs towards NSLCs. HFFs were cultured and treated with cytochalasin B as described in Example III. After two days of treatment, cells were transfected by Nucleofection as described in Example II with the constructed vector Msi1/Ngn2. Briefly, after preparing the cells, they were mixed with 2 μg of total DNA (Msi1/Ngn2) and were co-transfect with MBD2 ([…]), by the Amaxa's Nucleofector™ according to the manufacturer's protocol. The samples were then transferred into a Laminin (10 μg/ml, Sigma) coated culture plate and cultured in the presence of Neural Proliferation Medium (NeuroCult™ proliferation Kit, StemCell Technologies) with recombinant hFGF (20 ng/ml, Peprotech), recombinant hEGF (20 ng/ml, Peprotech), and with or without the presence of Noggin (20 ng/ml, Peprotech). Samples were collected at different time points (1, 3, 4, 6, and 8 days) to analyze neuronal gene expression by RT-PCR and protein expression levels by immunohistochemistry.
Fluorescent imunohistochemical staining was performed on samples after 4 days of transfection as previously described in Example I. Transfected cells were stained and analyzed for expression of Sox2, the percentage of Sox2 was 33.3±1.00% in the presence of Noggin compared to 27.5±0.50% without the presence of noggin at day 4. […]

Consider `C=C1[C@@H](C)[C@H]2[C@H](Cc3ccccc3)NC(=O)[C@]23OC(=O)/C=C/[C@H](O)CCC[C@@H](C)C/C=C/[C@H]3[C@@H]1O` [Cytochalasin B], for which the effect on reprogramming result in the assay on fibroblast cells is listed as “significantly enhanced reprogramming, but had no reprogramming effect on its own”. For the same molecule, the βIII-tubulin positive cells entry in assay [1] is “failed to detect”.

B1: Noggin: Noggin (20 ng/ml, Peprotech), inhibits the BMP signaling pathway (protein, UniProt Q13253 28-232, looked up)
Noggin: QHYLHIRPAPSDNLPLVDLIEHPDPIFDPKEKDLNETLLRSLLGGHYDPGFMATSPPEDRPGGGGGAAGGAEDLAELDQLLRQRPSGAMPSEIKGLEFSEGLAQGKKQRLSKKLRRKLQMWLWSQTFCPVLYAWNDLGSRFWPRYVKVGSCFSKRSCSVPEGMVCKPSKSVHLTVLRWRCQRRGGQRCGWIPIQYPIISECKCSC
Consider B1, for which the effect on reprogramming entry with HFFs is listed as “enhanced reprogramming, but had no reprogramming effect on its own”.
